Patent US4150138A, “Method of reducing blood pressure with thiourea derivatives and guanidine derivatives” (Hoffmann-La Roche Inc., priority 1978, dated 1979)
Where two headings read alike, the source gives them in different places.

Legend:
[1] = Acute toxicity (LD50) in the mouse; details: in vivo
[2] = tested on: genetically or deoxycorticosterone acetate/sodium chloride fed hypertensive rats; test: Anti-hypertensive activity in hypertensive rats (indirect systolic blood pressure from the tail, heart rate); type: in vivo, rat (Charles River male); details: 10 mg/kg p.o., 6 hours after administration
Description: For example, Doca-Na hypertension is induced in Charles River male rats weighing 170-210 grams by unilateral nephrectomy followed by subcutaneous implantation of a 25 mg. deoxycorticosterone acetate pellet. Animals are placed in individual cages and receive 0.9% sodium chloride solution and rat chow diet ad libitum. Two weeks are allowed to elapse from the time of surgery for development of hypertension, i.e., systolic blood pressure above 150 mm Hg. Systolic blood pressure is measured indirectly from the tail of unanesthetized rats (restrained in holders heated for 5-10 minutes at 37°-38° C.) using a pneumatic pulse transducer (piezo-electric crystal and occluding cuff). The transducer and occluding cuff are coupled to a two-channel recorder. Control readings are taken prior to drug and at 1, 3, 6 and 24 hours post-drug. All test compounds are prepared in acacia solution (5%) and are orally administered to the test animals.

[3] = tested on: tetrabenazine-induced ptosis in mice; test: Antidepressant activity: prevention of tetrabenazine-induced ptosis in mice; type: in vivo; details: Mus musculus, ip, 1 h, tetrabenazine (normally 150 mg/kg) i.p. one hour after test compound, ptosis read one hour later, read-out: ED50 (dose at which ptosis is prevented in 3/6 of the mice)
Description: The compounds of formulas I and II have central nervous system activity, including antidepressant activity. […] For example, six mice are treated with the test compound. One hour later a ptosis-inducing dose of tetrabenazine (normally 150 mg/kg) is given intraperitoneally. Ptosis is read one hour after the tetrabenazine injection. The ED50 is the dose at which ptosis is prevented in 3/6 of the mice. […] The ED50 is calculated by the method of Behrens. Arch. Exp. Path. & Pharm. 140, 237 (1929).

Row | SMILES | LD50 ([1]; ip, read-out: LD50 i.p.) [mg/kg] | LD50 ([1]; po, read-out: LD50 p.o.) [mg/kg] | decrease in the blood pressure [2] [mm/Hg] | decrease in the heart rate [2] [beats/minutes] | ED50 [3] [mg/kg]
1 | NCCNC(=S)Nc1cccc(Cl)c1Cl [1-(2-aminoethyl)-3-(2,3-dichlorophenyl)thiourea] | 450 | > 1000 | 51 | 95 | –
2 | NCCNC(=S)Nc1c(Cl)cccc1Cl [1-(2-aminoethyl)-3-(2,6-dichlorophenyl)thiourea] | 450 to 550 | 750 to 775 | 73 | 81 | 5.7
